Tests used:
[1] = Solubility of drug substance in simulated vaginal fluid; format: physicochemical; conditions: fassgf or other biorelevant
[2] = Compatibility of Diclofenac Sodium in Gel Formulation 1; format: physicochemical; conditions: 2%, 3% gels, viscosity, pH, appearance
Source text: Variation in pH was reported between prototypes but was expected due to the chemical nature of the API.

With `O=C(O)Cc1ccccc1Nc1c(Cl)cccc1Cl` [Diclofenac Sodium] the solubility [1] was roughly 16 µg/mL and the “compatibility with the Gel Formulation 1 composition” value [2] was “Compatible”.

— patent US20240189265A1, “COMPOSITIONS AND TECHNIQUES FOR VAGINAL INSERTION” (Daré Bioscience, Inc., priority 2021, published 2024)
